Relative viability data for one cell line are collected here from the supplement of paper PMC10307832.

Assay in all cases: relative viability (nuclei count vs DMSO), 5 days (fraction); higher = more cells survive
Compound in assay [1]: O=S(=O)(c1ccccc1)N(CC(F)(F)F)c1ccc(C(O)(C(F)(F)F)C(F)(F)F)cc1 + Cc1cc(Nc2cc(N3CCN(C)CC3)nc(Sc3ccc(NC(=O)C4CC4)cc3)n2)n[nH]1 [Tozasertib] (partner 0.1 µM)
A digest of the protocol:
(§1)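 Lung cancer cell lines in 1536-well plates were dosed by pin tool the day after seeding, either with one drug alone or with a fixed anchor-drug dose plus five library-drug doses (not always all listed) in √10 steps. After 5 days, cells were fixed and their nuclei stained in one step (final 0.05% Triton X-100, 1% formaldehyde, 1 ug/ml Hoechst), then counted on 4× images. Relative viability is the nuclei count in treated wells divided by that in vehicle wells. Values are medians of duplicate plates.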

Compound in the assay “RO-3306 + Pemetrexed”: C1=CC2=C(C=CC(=C2)C=C3C(=O)NC(=NCC4=CC=CS4)S3)N=C1 [RO-3306] + Nc1nc2[nH]cc(CCc3ccc(C(=O)N[C@@H](CCC(=O)O)C(=O)O)cc3)c2c(=O)[nH]1 [Pemetrexed] (partner 0.2 µM)
The procedure, abridged: as §1

Compound in assay [2]: O=S(=O)(c1ccccc1)N(CC(F)(F)F)c1ccc(C(O)(C(F)(F)F)C(F)(F)F)cc1 + CC(=O)Nc1cccc(-n2c(=O)n(C3CC3)c(=O)c3c(Nc4ccc(I)cc4F)n(C)c(=O)c(C)c32)c1 [Trametinib] (partner 0.02 µM)
A digest of the protocol:
as §1

Compound in the assay “RO-3306 + Decitabine”: C1=CC2=C(C=CC(=C2)C=C3C(=O)NC(=NCC4=CC=CS4)S3)N=C1 [RO-3306] + Nc1ncn([C@H]2C[C@H](O)[C@@H](CO)O2)c(=O)n1 [Decitabine] (partner 2 µM)
A digest of the protocol:
as §1

For the cell line UMC-11, the relative viability in assay [1] (first compound 0.8 µM) is 0.215; in assay [1] (first compound 2.53 µM), 0.22; in assay [1] (first compound 8 µM) it was 0.237; with RO-3306 + Pemetrexed (first compound 0.01 µM) it was 0.906; with RO-3306 + Pemetrexed (first compound 0.03162 µM), 0.746; with RO-3306 + Pemetrexed (first compound 0.1 µM) it was 0.816. In addition, the relative viability in the assay with RO-3306 + Pemetrexed (first compound 0.3162 µM) turned out to be 0.816; with RO-3306 + Pemetrexed (first compound 1 µM), 0.791; in assay [2] (first compound 0.8 µM), 0.796; in assay [2] (first compound 2.53 µM), 0.711; in assay [2] (first compound 8 µM) it was 0.862; with RO-3306 + Decitabine (first compound 0.01 µM), 0.569. In addition, the relative viability was 0.58 with RO-3306 + Decitabine (first compound 0.03162 µM), 0.613 with RO-3306 + Decitabine (first compound 0.1 µM), 0.607 with RO-3306 + Decitabine (first compound 0.3162 µM) and 0.583 with RO-3306 + Decitabine (first compound 1 µM).
